The numbers were not newly measured in patent US20130018223A1, “METHOD FOR TIMING A COLONOSCOPY” (priority 2011, published 2013), which cites them from elsewhere.

`[O]=[Mg]` [Magnesium oxide]: the solubility in alcohol result was “not soluble”.
